Consider 1 molecule from patent publication US12268674B2, “Mi-2β inhibitor as an immunotherapy agent” (BioVentures, LLC, priority 2021, dated 2025).

One data set concerns the target T1, TCP1 (Homo sapiens, UniProt P17987).
T1 construct: to get the native cell lysate; endogenous in cells; host or cells: A375 cell lysate
The experiment in a line: ATPase profile (ATP acyl phosphate probe). The class given is binding. The following applies: TCP1, SEQ ID NO: 200, ATP BS.

The next data set addresses T2, AK2 (Homo sapiens, UniProt P54819).
T2 construct: to get the native cell lysate; host or cells: A375 cell lysate
The experiment in a line: ATPase profile (ATP acyl phosphate probe). The following applies: AK2, SEQ ID NO: 33, ATP BS. Format: binding.

For a further data set, the target named is T3, DDX39 (Homo sapiens, UniProt O00148).
T3 construct: endogenous in cells; host or cells: A375 cell lysate
T3 sequence (O00148 whole entry): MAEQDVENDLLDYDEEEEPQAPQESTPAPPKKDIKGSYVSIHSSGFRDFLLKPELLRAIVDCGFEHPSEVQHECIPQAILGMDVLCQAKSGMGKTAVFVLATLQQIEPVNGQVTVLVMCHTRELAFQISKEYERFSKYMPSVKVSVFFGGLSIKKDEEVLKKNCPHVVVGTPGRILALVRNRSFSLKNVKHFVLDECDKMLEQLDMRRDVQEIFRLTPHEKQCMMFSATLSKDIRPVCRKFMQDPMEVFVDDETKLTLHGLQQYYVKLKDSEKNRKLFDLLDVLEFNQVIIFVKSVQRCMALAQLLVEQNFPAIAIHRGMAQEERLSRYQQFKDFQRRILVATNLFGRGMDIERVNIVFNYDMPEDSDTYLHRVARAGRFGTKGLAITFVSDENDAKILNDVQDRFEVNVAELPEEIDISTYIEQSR
The experiment in a line: ATPase profile (ATP acyl phosphate probe). The following applies: DDX39, SEQ ID NO: 69, ATP BS. Format: binding.

For another data set, the target named is T4, HSP60 (Homo sapiens, UniProt P10809).
T4 construct: to get the native cell lysate; endogenous in cells; host or cells: A375
T4 sequence (P10809 27-573): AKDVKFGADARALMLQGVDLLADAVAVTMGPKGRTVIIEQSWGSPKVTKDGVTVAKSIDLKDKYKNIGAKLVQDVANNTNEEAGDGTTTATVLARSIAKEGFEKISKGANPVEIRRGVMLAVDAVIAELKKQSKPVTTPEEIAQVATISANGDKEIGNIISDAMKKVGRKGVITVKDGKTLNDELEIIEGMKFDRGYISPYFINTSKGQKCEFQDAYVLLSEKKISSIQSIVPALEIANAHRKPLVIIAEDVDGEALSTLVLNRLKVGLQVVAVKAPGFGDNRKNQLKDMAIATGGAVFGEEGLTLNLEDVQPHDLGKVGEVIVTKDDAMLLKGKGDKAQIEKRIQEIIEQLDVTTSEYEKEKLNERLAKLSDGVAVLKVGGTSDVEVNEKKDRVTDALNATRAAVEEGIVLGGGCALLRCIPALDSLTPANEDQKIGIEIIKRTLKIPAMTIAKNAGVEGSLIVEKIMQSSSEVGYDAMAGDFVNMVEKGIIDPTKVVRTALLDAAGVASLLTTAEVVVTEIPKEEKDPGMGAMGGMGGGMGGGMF
The experiment in a line: ATPase profile (ATP acyl phosphate probe). The class given is binding. The following applies: HSP60, SEQ ID NO: 94, ATP BS.

The target in another data set is T5, MTHFD1 (Homo sapiens, UniProt P11586).
T5 construct: to get the native cell lysate; endogenous in cells; host or cells: A375
T5 sequence (P11586 whole entry): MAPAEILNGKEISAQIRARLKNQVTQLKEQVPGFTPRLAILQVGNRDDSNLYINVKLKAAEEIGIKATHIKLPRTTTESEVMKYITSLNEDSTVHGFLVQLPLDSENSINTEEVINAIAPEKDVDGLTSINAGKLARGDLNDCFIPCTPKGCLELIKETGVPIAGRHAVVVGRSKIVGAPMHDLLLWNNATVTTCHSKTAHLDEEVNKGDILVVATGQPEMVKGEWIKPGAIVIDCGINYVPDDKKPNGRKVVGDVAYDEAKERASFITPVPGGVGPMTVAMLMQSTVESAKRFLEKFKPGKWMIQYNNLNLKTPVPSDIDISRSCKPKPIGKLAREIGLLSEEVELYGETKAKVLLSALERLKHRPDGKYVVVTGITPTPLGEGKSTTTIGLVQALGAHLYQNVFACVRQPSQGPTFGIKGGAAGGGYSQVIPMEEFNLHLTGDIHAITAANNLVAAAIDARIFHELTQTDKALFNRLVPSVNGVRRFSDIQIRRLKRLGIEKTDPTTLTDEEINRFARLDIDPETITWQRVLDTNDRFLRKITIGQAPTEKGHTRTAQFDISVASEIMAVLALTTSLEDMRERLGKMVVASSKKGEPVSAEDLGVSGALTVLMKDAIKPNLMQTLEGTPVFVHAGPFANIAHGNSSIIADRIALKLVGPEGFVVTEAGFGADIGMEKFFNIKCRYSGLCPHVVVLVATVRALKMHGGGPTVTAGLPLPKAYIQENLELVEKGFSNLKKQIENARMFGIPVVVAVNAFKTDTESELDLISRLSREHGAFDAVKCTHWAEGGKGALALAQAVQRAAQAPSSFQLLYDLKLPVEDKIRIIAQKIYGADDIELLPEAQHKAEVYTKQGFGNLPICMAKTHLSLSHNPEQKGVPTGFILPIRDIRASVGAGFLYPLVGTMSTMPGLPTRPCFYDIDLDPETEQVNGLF
The experiment in a line: ATPase profile (ATP acyl phosphate probe). Format: binding. The following applies: MTHFD1, SEQ ID NO: 125, ATP BS.

Data set [1] is described as follows: Pharmacokinetics of Z36-MP5 in rats. Format: in vivo. The settings on record: Sprague-Dawley rats; intraperitoneal 1.0 mg/kg. On the procedure: Compound Z36-MP5 was evaluated in a pharmacokinetic study in male Sprague-Dawley (SD) rats following intraperitoneal injection of Z36-MP5 at 1.0 mg/kg as a solution in 5% DMSO, 30% PEG400, and 65% corn oil. Blood was collected at 0.25 h, 0.5 h, 1 h, 2 h, 4 h, 8 h, and 24 h following intraperitoneal injection. The blood samples were placed in wet ice, and serum was collected after centrifugation. Serum samples were frozen and stored at −80° C. The serum samples were analyzed utilizing HPLC-coupled tandem mass spectrometry (LC-MS/MS). Values are calculated from arithmetic mean plasma concentrations (n=3 rats per condition).

In the next data set the target is T6, ABCD4 (Homo sapiens, UniProt O14678).
T6 construct: to get the native cell lysate; host or cells: A375 cell lysate
T6 sequence (O14678 whole entry): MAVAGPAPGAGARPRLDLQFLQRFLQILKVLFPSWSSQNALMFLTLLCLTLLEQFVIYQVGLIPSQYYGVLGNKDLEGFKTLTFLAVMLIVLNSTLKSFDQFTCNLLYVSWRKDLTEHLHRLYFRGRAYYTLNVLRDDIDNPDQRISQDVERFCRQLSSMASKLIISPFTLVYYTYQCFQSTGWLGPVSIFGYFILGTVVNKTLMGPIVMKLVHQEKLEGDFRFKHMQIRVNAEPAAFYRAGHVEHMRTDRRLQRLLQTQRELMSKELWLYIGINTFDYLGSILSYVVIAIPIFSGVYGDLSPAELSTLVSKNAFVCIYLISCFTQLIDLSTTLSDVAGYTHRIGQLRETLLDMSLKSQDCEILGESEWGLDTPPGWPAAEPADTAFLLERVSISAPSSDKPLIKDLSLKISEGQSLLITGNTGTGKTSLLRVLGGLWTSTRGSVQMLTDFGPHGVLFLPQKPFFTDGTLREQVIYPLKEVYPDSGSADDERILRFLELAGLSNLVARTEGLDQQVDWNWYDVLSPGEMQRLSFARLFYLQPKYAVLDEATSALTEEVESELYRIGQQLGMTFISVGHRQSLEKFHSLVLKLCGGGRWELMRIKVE
The experiment in a line: ATPase profile (ATP acyl phosphate probe). The class given is binding. The following applies: ABCD4, SEQ ID NO: 14, ATP BS.

The next data set concerns the target T7, ASNA1 (Homo sapiens, UniProt O43681).
T7 construct: to get the native cell lysate; host or cells: A375 cell lysate
The experiment in a line: ATPase profile (ATP acyl phosphate probe). Format: binding.

The next data set concerns the target T8, GART (Homo sapiens, UniProt P22102).
T8 construct: endogenous in cells; host or cells: A375 cell lysate
T8 sequence (P22102 1-1010): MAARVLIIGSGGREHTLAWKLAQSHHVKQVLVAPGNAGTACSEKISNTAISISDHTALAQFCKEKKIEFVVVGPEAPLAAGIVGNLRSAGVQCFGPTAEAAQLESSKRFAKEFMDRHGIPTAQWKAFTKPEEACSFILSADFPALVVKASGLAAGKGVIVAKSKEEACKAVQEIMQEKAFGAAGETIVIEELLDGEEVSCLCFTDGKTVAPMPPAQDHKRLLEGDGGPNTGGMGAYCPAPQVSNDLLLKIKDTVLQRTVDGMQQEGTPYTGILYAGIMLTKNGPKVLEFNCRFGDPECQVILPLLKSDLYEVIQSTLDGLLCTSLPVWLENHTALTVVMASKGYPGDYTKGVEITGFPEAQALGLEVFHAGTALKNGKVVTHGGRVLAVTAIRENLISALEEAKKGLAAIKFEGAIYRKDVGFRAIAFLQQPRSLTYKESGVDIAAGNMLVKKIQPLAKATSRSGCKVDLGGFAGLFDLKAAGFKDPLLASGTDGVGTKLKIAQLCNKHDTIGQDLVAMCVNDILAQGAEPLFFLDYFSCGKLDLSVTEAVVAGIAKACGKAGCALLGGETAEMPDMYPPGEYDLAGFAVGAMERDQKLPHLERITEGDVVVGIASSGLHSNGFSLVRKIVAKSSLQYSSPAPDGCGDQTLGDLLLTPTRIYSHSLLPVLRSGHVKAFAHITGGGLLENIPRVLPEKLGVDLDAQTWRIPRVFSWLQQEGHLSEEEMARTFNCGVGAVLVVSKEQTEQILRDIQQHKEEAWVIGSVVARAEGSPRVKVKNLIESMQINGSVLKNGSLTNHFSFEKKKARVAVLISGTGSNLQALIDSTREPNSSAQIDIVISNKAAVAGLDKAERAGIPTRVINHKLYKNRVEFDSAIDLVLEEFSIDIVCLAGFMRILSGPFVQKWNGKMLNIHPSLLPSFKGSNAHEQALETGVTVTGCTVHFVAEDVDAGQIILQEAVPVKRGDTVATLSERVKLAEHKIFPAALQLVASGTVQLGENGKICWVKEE
The experiment in a line: ATPase profile (ATP acyl phosphate probe). Format: binding.

A further data set has as its target T9, ATG7 (Homo sapiens, UniProt O95352).
T9 construct: to get the native cell lysate; host or cells: A375 cell lysate
The experiment in a line: ATPase profile (ATP acyl phosphate probe). Format: binding.

For another data set, the target named is PSMC4 (Homo sapiens, UniProt P43686). The experiment in a line: ATPase profile (ATP acyl phosphate probe). Format: binding. The settings on record: PSMC4, SEQ ID NO: 176, ATP BS.
The target of the next data set is T10, HARS (Homo sapiens, UniProt P12081).
T10 construct: endogenous in cells; host or cells: A375 cell lysate
T10 sequence (P12081 whole entry): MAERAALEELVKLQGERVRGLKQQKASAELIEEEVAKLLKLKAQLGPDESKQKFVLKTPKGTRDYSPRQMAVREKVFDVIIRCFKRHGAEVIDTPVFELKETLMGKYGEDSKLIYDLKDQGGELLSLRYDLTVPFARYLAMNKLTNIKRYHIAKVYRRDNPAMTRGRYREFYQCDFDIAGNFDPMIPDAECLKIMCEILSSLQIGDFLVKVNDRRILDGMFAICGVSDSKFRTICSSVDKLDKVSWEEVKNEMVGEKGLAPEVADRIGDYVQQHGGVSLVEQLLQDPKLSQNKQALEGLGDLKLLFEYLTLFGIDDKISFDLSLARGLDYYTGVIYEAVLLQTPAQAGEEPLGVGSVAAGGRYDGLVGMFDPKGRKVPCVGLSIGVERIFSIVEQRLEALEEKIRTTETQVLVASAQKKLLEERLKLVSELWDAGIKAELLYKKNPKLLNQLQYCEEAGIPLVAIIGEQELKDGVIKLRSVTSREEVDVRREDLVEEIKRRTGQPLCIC
The experiment in a line: ATPase profile (ATP acyl phosphate probe). Format: binding. The settings on record: SEQ ID NO: 89, ATP BS.

A further data set addresses T11, ABCC10 (Homo sapiens, UniProt Q5T3U5).
T11 construct: to get the native cell lysate; host or cells: A375 cell lysate
The experiment in a line: ATPase profile (ATP acyl phosphate probe). The class given is binding. The settings on record: ABCC10, SEQ ID NO: 7, ATP BS.

The next data set has as its target T12, PAICS (Homo sapiens, UniProt P22234).
T12 construct: to get the native cell lysate; endogenous in cells; host or cells: A375
The experiment in a line: ATPase profile (ATP acyl phosphate probe). The following applies: SEQ ID NO: 151, ATP BS. Format: binding.

The next data set concerns the target T13, SMC3 (Homo sapiens, UniProt Q9UQE7).
T13 construct: to get the native cell lysate; endogenous in cells; host or cells: A375 cell lysate
The experiment in a line: ATPase profile (ATP acyl phosphate probe). The following applies: SMC3, SEQ ID NO: 194, ATP BS. Format: binding.

The next data set deals with T14, DDX3X (Homo sapiens, UniProt O00571).
T14 construct: endogenous in cells; host or cells: A375 cell lysate
The experiment in a line: ATPase profile (ATP acyl phosphate probe). Format: binding. The settings on record: SEQ ID NO: 70, ATP BS.

A further data set deals with T15, CCT5 (Homo sapiens, UniProt P48643).
T15 construct: to get the native cell lysate; host or cells: A375 cell lysate
The experiment in a line: ATPase profile (ATP acyl phosphate probe). Format: binding. The settings on record: CCT5, SEQ ID NO: 54, ATP BS.

Another data set concerns the target T16, NMNAT3 (Homo sapiens, UniProt Q96T66).
T16 construct: to get the native cell lysate; endogenous in cells; host or cells: A375
The experiment in a line: ATPase profile (ATP acyl phosphate probe). Format: binding. The settings on record: NMNAT3, SEQ ID NO: 135, ATP BS.

T9 sequence (O95352 whole entry): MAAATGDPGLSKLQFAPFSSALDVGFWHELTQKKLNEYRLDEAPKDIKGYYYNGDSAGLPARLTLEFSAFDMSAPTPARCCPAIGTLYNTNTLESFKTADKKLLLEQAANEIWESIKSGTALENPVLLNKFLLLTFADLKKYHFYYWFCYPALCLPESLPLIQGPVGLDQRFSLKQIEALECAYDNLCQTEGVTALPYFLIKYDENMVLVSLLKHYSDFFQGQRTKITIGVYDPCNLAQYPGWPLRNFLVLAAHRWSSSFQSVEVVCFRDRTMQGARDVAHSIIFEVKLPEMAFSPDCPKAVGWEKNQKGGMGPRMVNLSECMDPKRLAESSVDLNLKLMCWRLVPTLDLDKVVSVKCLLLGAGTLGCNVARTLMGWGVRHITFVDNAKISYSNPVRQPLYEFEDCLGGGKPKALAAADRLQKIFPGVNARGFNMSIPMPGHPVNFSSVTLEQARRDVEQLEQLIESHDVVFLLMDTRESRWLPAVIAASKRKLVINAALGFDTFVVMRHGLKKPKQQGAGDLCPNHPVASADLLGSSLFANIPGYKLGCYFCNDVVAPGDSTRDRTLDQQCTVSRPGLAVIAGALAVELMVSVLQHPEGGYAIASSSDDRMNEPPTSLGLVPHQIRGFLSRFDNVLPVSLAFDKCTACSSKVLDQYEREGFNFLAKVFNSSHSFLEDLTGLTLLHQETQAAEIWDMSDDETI
T7 sequence (O43681 whole entry): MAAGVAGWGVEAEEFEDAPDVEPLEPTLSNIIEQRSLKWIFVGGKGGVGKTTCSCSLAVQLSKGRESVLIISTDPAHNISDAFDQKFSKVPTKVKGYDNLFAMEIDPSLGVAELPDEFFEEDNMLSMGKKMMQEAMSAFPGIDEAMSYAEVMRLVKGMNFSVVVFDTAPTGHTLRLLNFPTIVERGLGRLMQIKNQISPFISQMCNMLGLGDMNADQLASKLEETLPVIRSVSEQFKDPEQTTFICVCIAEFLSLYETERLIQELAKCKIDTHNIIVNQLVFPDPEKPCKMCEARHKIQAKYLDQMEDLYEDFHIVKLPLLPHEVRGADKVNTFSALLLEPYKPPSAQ
T16 sequence (Q96T66 whole entry): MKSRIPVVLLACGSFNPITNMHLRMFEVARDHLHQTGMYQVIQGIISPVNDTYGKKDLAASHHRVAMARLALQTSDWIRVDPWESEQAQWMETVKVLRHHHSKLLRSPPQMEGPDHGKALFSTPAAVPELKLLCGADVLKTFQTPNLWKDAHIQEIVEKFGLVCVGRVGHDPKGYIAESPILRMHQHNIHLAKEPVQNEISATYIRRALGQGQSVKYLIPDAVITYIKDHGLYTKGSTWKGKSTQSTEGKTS
T12 sequence (P22234 whole entry): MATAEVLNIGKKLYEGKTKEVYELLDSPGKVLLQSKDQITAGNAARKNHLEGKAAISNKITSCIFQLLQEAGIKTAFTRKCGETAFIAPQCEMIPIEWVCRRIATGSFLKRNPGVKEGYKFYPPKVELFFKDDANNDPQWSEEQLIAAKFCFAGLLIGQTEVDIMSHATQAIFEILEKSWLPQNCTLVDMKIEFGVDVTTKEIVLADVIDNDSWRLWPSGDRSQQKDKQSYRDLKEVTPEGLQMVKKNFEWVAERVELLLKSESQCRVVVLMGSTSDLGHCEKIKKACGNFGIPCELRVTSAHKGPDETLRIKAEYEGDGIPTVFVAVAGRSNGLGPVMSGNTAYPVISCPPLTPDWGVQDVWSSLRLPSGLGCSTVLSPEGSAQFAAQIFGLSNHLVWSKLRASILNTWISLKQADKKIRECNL

On to `Cn1c(=O)[nH]c2ccc(-c3cccc(C(=O)NC4CCn5ccnc5C4)c3)cc21` (stereo not shown) [Z36-MP5, 3-(3-methyl-2-oxo-2,3-dihydro-1H-benzo[d]imidazol-5-yl)-N-(5,6,7,8-tetrahydroimidazo[1,2-a]pyridin-7-yl)benzamide], for which the “Inhibition (%) by 1 μM Z36-MP5” value is recorded as 6.76% on TCP1; −4.75% at AK2; −8.90% on DDX39; 11.39% on HSP60; −6.16% at MTHFD1; 11.24% on ABCD4. The “Inhibition (%) by 1 μM Z36-MP5” value at ASNA1 (ASNA1, SEQ ID NO: 41, ATP BS) was −3.04%; at ASNA1 (ASNA1, SEQ ID NO: 42, ATP BS), 0.73%; at GART (SEQ ID NO: 80, ATP BS) it was −8.85%; at GART (SEQ ID NO: 81, ATP BS), −7.56%; on GART (SEQ ID NO: 82, ATP BS), −2.13%; at ATG7 (ATG7, SEQ ID NO: 45, ATP BS) it was −0.18%. For the same molecule, the “Inhibition (%) by 1 μM Z36-MP5” value is listed as −6.20% at ATG7 (ATG7, SEQ ID NO: 46, ATP BS); 13.36% at PSMC4; 4.68% at HARS; −3.83% at ABCC10; 19.51% at PAICS; −10.19% on SMC3. Further, the “Inhibition (%) by 1 μM Z36-MP5” value at DDX3X is listed as 11.22%; at CCT5, −2.48%; at NMNAT3 it was 9.62%. For the same molecule, the “half-life T1/2” value in data set [1] was determined as 27 min.
